Source: paper PMC6331856, “Carapanolides T–X from Carapa guianensis (Andiroba) Seeds” (Molecules, 2015)
Values belong to the compound of their own block, whether it stands above or below them.

Tests used:
[1] = tested on: NO production; details: previous study; read-out: inhibitory activity on NO production IC50; cited from earlier work
[2] = tested on: NO production in LPS-stimulated RAW264.7 cells; experiment: Inhibitory assay of NO production in LPS-stimulated RAW264.7 cells; type: cell-based; details: Mus musculus, LPS 5 μg/mL, 24 h treatment
Experimental: (§1) Macrophages may be a potential therapeutic target for inflammatory diseases. Activated macrophages release pro-inflammatory mediators, such as NO, reactive oxygen, interleukin-1 beta, tumor necrosis factor-alpha and other inflammatory mediators, which play important roles in biological defense. […] In the present study, four limonoids and N^G-monomethyl-L-arginine acetate (L-NMMA), an inducible nitric oxide synthase (iNOS) inhibitor, were evaluated for their inhibitory effects on NO production in LPS-stimulated RAW264.7 cells (Figure 5). To determine safe concentrations, the cytotoxicities of these limonoids against RAW 264.7 were assessed by the MTT assay.
An inhibitory assay of nitric oxide production was performed according to a method reported previously with slight modifications. Briefly, RAW264.7 cells (5 × 10^4 cells in 100 μL) were seeded onto 96-well microplates and incubated for 24 h. D-MEM (100 μL) containing test samples (final concentration of 100, 30, 10 or 3 μM) dissolved in DMSO (final concentration 0.2%) and LPS (final concentration of 5 μg/mL) were added. After cells had been treated for 24 h, 50 μL of 0.1% N-(1-naphtyl)ethylenediamine in H2O and 50 μL of 1% sulfanilamide in 5% phosphoric acid were added. After being incubated for 30 min, the absorbance of each well was read at 570 nm using a microplate reader. […]

[3] = tested on: RAW264.7 cells; experiment: RAW264.7 cell proliferation / cytotoxicity by MTT assay; type: cell-based
Experimental: as §1
RAW264.7 cell proliferation was examined according to a method reported previously with few modifications. Briefly, RAW264.7 cells (5 × 10^4 cells in 100 μL) were seeded onto 96-well microplates and incubated for 24 h. D-MEM (100 μL) containing test samples (final concentration of 100, 30, 10 or 3 μM) dissolved in DMSO (final concentration 0.2%) was added. After the cells had been treated for 24 h, the MTT solution was added. After 3 h of incubation, 20% sodium dodecyl sulfate (SDS) in 0.1 M HCl was added to dissolve the formazan produced by the cells. The absorbance of each well was read at 570 nm using a microplate reader. The optical density of vehicle control cells was assumed to be 100%.

[4] = at the effective concentration 10 μM

Compound: 6α-acetoxy-7α-deacetoxy-7α-hydroxygedunin
IC50 [1]: 9.4 µM

Compound: CC(=O)O[C@H]1[C@@H](OC(C)=O)[C@]2(C)[C@H](CC[C@@]3(C)[C@H](c4ccoc4)OC(=O)[C@H]4O[C@@]423)[C@@]2(C)C=CC(=O)C(C)(C)[C@H]12 [6α-acetoxygedunin]
IC50 [1]: 7.9 µM

Compound: CC(=O)O[C@@H]1[C@H](O)C2C(C)(C)C(=O)C=C[C@]2(C)C2CC[C@@]3(C)[C@H](c4ccoc4)OC(=O)[C@H]4O[C@]43[C@@]21C (stereo partly drawn) [6α-hydroxygedunin]
IC50 [1]: 19.1 µM

Compound: CC1(C)C(=O)C=CC2(C)C1CC(O)C1(C)C2CCC2(C)C(c3ccoc3)OC(=O)C3OC321 (stereo not drawn) [7-deacetoxy-7-hydroxygedunin]
IC50 [1]: 8.4 µM

Compound: CC1(C)C(=O)C=CC2(C)C1CC(=O)C1(C)C2CCC2(C)C(c3ccoc3)OC(=O)C3OC321 (stereo not drawn) [7-deacetoxy-7-oxogedunin]
IC50 [1]: 12.8 µM

IC50 [2]: 22 µM
melting point: 83 to 85 °C
Compound: COC(=O)CC1C(C)(C)C(OC(=O)C(C)C)C2(O)CC3(O)C4=CC(=O)OC(c5ccoc5)C4(C)CCC3C1(C)C2=O (stereo not drawn) [Compound 1, Carapanolide T]
cytotoxicity against RAW264.7 ([3]; at 30 μM): low cytotoxicity
cytotoxicity against RAW264.7 [3, 4]: not at the effective concentration

IC50 [2]: 23.3 µM
melting point: 133 to 136 °C
Compound: CC=C(C)C(=O)OC1C2(O)CC3(O)C4=CC(=O)OC(c5ccoc5)C4(C)CCC3C(C)(C2=O)C(CC(=O)OC)C1(C)C (stereo not drawn) [Compound 2, Carapanolide U]
cytotoxicity against RAW264.7 ([3]; at 1–30 μM): did not show cytotoxicities
cytotoxicity against RAW264.7 [3, 4]: not at an effective concentration

Compound: CC(=O)O[C@@H]1C[C@H]2C(C)(C)C(=O)C=C[C@]2(C)[C@H]2CC[C@@]3(C)[C@H](c4ccoc4)OC(=O)[C@H]4O[C@]43[C@@]21C [gedunin]
IC50 [1]: 4.6 µM

Compound: carapanolide J
IC50 [1]: 37.4 µM
